Strand notation (5' to 3'): a small letter for the sugar, then the base; units joined by * are phosphorothioate-linked, units joined directly phosphodiester-linked; [ ] holds rarer units or linkages, { } end groups; capitals alone tell only the bases. e = 2'-O-(2-methoxyethyl) (MOE); [5mC] = 5-methylcytosine; d = 2'-deoxy (DNA)
system: human Factor 7 mRNA; assay: Antisense inhibition of human Factor 7 mRNA in HepB3 cells, 50 nM antisense oligonucleotide, lipofectin; type: cell-based; details: Table 1, 50 nM, lipofectin, approximately 24 hours, relative to untreated control cells
Procedure: Antisense oligonucleotides targeted to a Factor 7 nucleic acid were tested for their effects on Factor 7 mRNA in vitro. Cultured HepB3 cells at a density of 4,000 cells per well were transfected using lipofectin reagent with 50 nM antisense oligonucleotide. After a treatment period of approximately 24 hours, RNA was isolated from the cells and Factor 7 mRNA levels were measured by real-time RT-PCR, as described herein. Factor 7 mRNA levels were adjusted according to total RNA content as measured by RIBOGREEN®. Results are presented as percent inhibition of Factor 7, relative to untreated control cells.
(§1) Antisense oligonucleotides targeted to a Factor 7 nucleic acid were designed and tested for their effects on Factor 7 mRNA in vitro. Certain antisense oligonucleotides from Table 3 were also retested for their effects on Factor 7 mRNA in vitro. Cultured HepB3 cells at a density of 4,000 cells per well were transfected using lipofectin reagent with 50 nM antisense oligonucleotide. After a treatment period of approximately 24 hours, RNA was isolated from the cells and Factor 7 mRNA levels were measured by real-time RT-PCR, as described herein. Human Factor 7 primer probe set RTS 2927 was used to measure mRNA levels. Factor 7 mRNA levels were adjusted according to total RNA content as measured by RIBOGREEN®. Results are presented as percent inhibition of Factor 7, relative to untreated control.
as §1, with “tested” for “tested for their effects on Factor 7 mRNA in vitro. Certain antisense oligonucleotides from Table 3 were also retested”
These gapmers were designed by creating gapmers shifted slightly upstream and downstream (i.e. “microwalk”) of the original gapmers from Table 7. Gapmers were also created with various motifs, e.g. 5-10-5 MOE, 3-14-3 MOE, and 2-13-5 MOE. These gapmers were tested in vitro. Cultured HepB3 cells at a density of 4,000 cells per well were transfected using lipofectin reagent with 50 nM antisense oligonucleotide. After a treatment period of approximately 24 hours, RNA was isolated from the cells and Factor 7 mRNA levels were measured by real-time RT-PCR. Factor 7 mRNA levels were adjusted according to total RNA content, as measured by RIBOGREEN®. Results are presented as percent inhibition of Factor 7, relative to untreated control cells.

| Substance | % Inhibition [%] |
| --- | --- |
| 407631 (antisense eG*eG*eG*e[5mC]*eA*d[5mC]*d[5mC]*dA*d[5mC]*dA*dT*dG*dG*dT*d[5mC]*eA*eG*eT*eG*eA) [compound 407631] | 66 |
| 407632 (antisense eT*e[5mC]*e[5mC]*eG*eT*dT*d[5mC]*dG*dG*dG*d[5mC]*dA*dG*dG*d[5mC]*eA*eG*eA*eG*eG) [compound 407632] | 46 |
| 407633 (antisense eG*e[5mC]*eA*eG*eG*d[5mC]*dA*dG*dT*d[5mC]*d[5mC]*dT*dG*dG*dG*eT*e[5mC]*eA*eT*e[5mC]) [compound 407633] | 71 |
| 407634 (antisense eG*eT*eG*eA*e[5mC]*dT*dG*d[5mC]*dT*dG*d[5mC]*dA*dG*dG*d[5mC]*eA*eG*eT*e[5mC]*e[5mC]) [compound 407634] | 24 |
| 407635 (antisense eT*eG*eG*e[5mC]*e[5mC]*d[5mC]*d[5mC]*dA*dG*d[5mC]*dT*dG*dA*d[5mC]*dG*eA*eT*eG*e[5mC]*e[5mC]) [compound 407635] | 64 |
| 407636 (antisense eG*e[5mC]*eA*eG*e[5mC]*d[5mC]*d[5mC]*dT*dG*dG*d[5mC]*d[5mC]*d[5mC]*d[5mC]*dA*eG*e[5mC]*eT*eG*eA) [compound 407636] | 75 |
| 407637 (antisense eG*eT*eA*e[5mC]*eT*dG*dG*dG*dA*dG*dA*d[5mC]*d[5mC]*d[5mC]*dT*eG*eG*eT*eG*eT) [compound 407637] | 71 |
| 407638 (antisense eG*e[5mC]*e[5mC]*eA*e[5mC]*dT*d[5mC]*dG*dA*dT*dG*dT*dA*d[5mC]*dT*eG*eG*eG*eA*eG) [compound 407638] | 0 |
| 407639 (antisense eT*eT*eT*eG*e[5mC]*dA*dG*d[5mC]*d[5mC]*dA*d[5mC]*dT*d[5mC]*dG*dA*eT*eG*eT*eA*e[5mC]) [compound 407639] | 76 |
| 407640 (antisense eG*e[5mC]*eA*eT*eG*dA*dG*d[5mC]*dT*dT*dT*dT*dG*d[5mC]*dA*eG*e[5mC]*e[5mC]*eA*e[5mC]) [compound 407640] | 79 |
| 407642 (antisense e[5mC]*eA*eG*e[5mC]*eA*dG*d[5mC]*d[5mC]*dT*dG*dA*dG*dG*d[5mC]*d[5mC]*eA*eG*e[5mC]*eA*eG) [compound 407642] | 78 |
| 407644 (antisense eG*eA*eG*eG*eA*d[5mC]*dA*dG*d[5mC]*dA*d[5mC]*dA*d[5mC]*dA*dT*eG*eG*eA*eG*eT) [compound 407644] | 66 |
| 407645 (antisense eG*eA*eG*eA*eG*d[5mC]*dT*dA*dA*dA*d[5mC]*dA*dA*d[5mC]*d[5mC]*eG*e[5mC]*e[5mC]*eT*eT) [compound 407645] | 65 |
| 407646 (antisense eG*eG*eT*eG*eA*dT*dG*d[5mC]*dT*dT*d[5mC]*dT*dG*dA*dA*eT*eT*eG*eT*e[5mC]) [compound 407646] | 81 |
| 407647 (antisense eG*e[5mC]*eA*eG*e[5mC]*d[5mC]*dG*dT*dT*dT*dA*dT*dT*dG*dT*eG*eA*eA*eG*e[5mC]) [compound 407647] | 83 |
| 407649 (antisense eG*eA*eG*eG*eG*dT*dT*d[5mC]*dA*dT*dT*dT*d[5mC]*dA*dG*eT*eG*eA*eT*eG) [compound 407649] | 24 |
| 407650 (antisense e[5mC]*e[5mC]*eA*eT*eG*dT*dG*dA*dG*dG*dG*dT*dT*d[5mC]*dA*eT*eT*eT*e[5mC]*eA) [compound 407650] | 39 |
| 407651 (antisense eA*eG*e[5mC]*e[5mC]*eT*d[5mC]*dA*dA*dA*d[5mC]*dA*dT*d[5mC]*dT*dA*eT*e[5mC]*eA*eA*eA) [compound 407651] | 32 |
| 407652 (antisense eT*eG*eG*eG*eA*dG*d[5mC]*dT*dA*d[5mC]*dA*dG*d[5mC]*d[5mC]*dT*e[5mC]*eA*eA*eA*e[5mC]) [compound 407652] | 30 |

| Substance | % Inhibition [%] |
| --- | --- |
| 407653 (antisense eA*eA*eT*eA*eT*d[5mC]*dA*dT*dT*dG*dA*d[5mC]*dA*dA*dG*eG*eG*e[5mC]*eT*eG) [compound 407653] | 21 |
| 407654 (antisense e[5mC]*e[5mC]*eA*e[5mC]*eT*dG*d[5mC]*dA*dG*d[5mC]*d[5mC]*dA*dG*dG*dG*e[5mC]*e[5mC]*eT*eG*eG) [compound 407654] | 34 |
| 407655 (antisense eA*eG*eA*eG*eT*dG*d[5mC]*dA*dG*d[5mC]*dT*dT*dG*d[5mC]*d[5mC]*eA*eG*eG*eT*e[5mC]) [compound 407655] | 28 |
| 407656 (antisense e[5mC]*eA*eG*e[5mC]*eA*dA*dG*dA*dG*dT*dG*d[5mC]*dA*dG*d[5mC]*eT*eT*eG*e[5mC]*e[5mC]) [compound 407656] | 43 |
| 407657 (antisense eG*eG*eG*eA*e[5mC]*dT*d[5mC]*dA*dG*d[5mC]*dA*dA*dG*dA*dG*eT*eG*e[5mC]*eA*eG) [compound 407657] | 26 |
| 407658 (antisense eG*e[5mC]*eT*eT*eG*d[5mC]*d[5mC]*dG*dG*dA*dG*dT*d[5mC]*dT*dG*eA*eG*eT*eG*eG) [compound 407658] | 16 |
| 407659 (antisense eG*eA*eT*eG*eG*d[5mC]*dA*dT*d[5mC]*dG*dA*dG*dT*d[5mC]*d[5mC]*eA*e[5mC]*eT*e[5mC]*eT) [compound 407659] | 55 |
| 407660 (antisense eG*e[5mC]*eT*e[5mC]*eT*dG*dA*dA*dG*dT*dA*dG*dA*dT*dG*eA*eT*eG*e[5mC]*e[5mC]) [compound 407660] | 16 |
| 407661 (antisense eT*eT*eT*eA*e[5mC]*dA*dA*dG*dA*dG*d[5mC]*dA*dG*dG*dG*eT*eG*e[5mC]*e[5mC]*eT) [compound 407661] | 47 |
| 407663 (antisense eT*eT*eG*e[5mC]*eA*dG*dG*d[5mC]*dA*dG*dG*dA*d[5mC]*dT*dG*eG*eT*eG*eG*eT) [compound 407663] | 44 |
| 407664 (antisense e[5mC]*eA*eG*eG*eG*d[5mC]*dG*dA*dG*dG*d[5mC]*dA*dA*d[5mC]*d[5mC]*e[5mC]*e[5mC]*eG*eT*eG) [compound 407664] | 70 |
| 407665 (antisense eG*eT*eT*eA*e[5mC]*dG*dA*dA*dG*dA*d[5mC]*dT*dG*dG*dG*eA*eA*eA*eT*eG) [compound 407665] | 29 |
| 407666 (antisense eT*e[5mC]*e[5mC]*e[5mC]*e[5mC]*dA*dG*dG*dA*d[5mC]*dA*dT*d[5mC]*dT*dG*eG*eA*eA*e[5mC]*eT) [compound 407666] | 52 |
| 407667 (antisense eG*eT*eG*eG*e[5mC]*d[5mC]*dA*dT*dG*d[5mC]*d[5mC]*d[5mC]*dT*dG*dG*eG*eT*e[5mC]*eA*eG) [compound 407667] | 71 |
| 407668 (antisense eG*eA*eA*eG*e[5mC]*d[5mC]*dT*dT*dA*d[5mC]*d[5mC]*dT*dG*d[5mC]*d[5mC]*eA*eT*eG*eG*eA) [compound 407668] | 54 |
| 407669 (antisense eT*eA*eG*eA*e[5mC]*d[5mC]*d[5mC]*dT*d[5mC]*dA*dG*dT*dG*dA*dG*eT*eG*eT*e[5mC]*eG) [compound 407669] | 57 |
| 407886 (antisense eG*e[5mC]*eA*eG*eA*dG*dG*dA*dG*d[5mC]*d[5mC]*dT*dG*dA*dG*eG*eG*e[5mC]*e[5mC]*eT) [compound 407886] | 72 |
| 407887 (antisense e[5mC]*e[5mC]*eA*eG*eG*d[5mC]*dA*dG*d[5mC]*d[5mC]*d[5mC]*dT*dG*dA*dA*eG*e[5mC]*e[5mC]*e[5mC]*eA) [compound 407887] | 78 |
| 407888 (antisense e[5mC]*eG*eA*eA*eG*dA*d[5mC]*dT*dG*d[5mC]*dA*dG*d[5mC]*d[5mC]*dA*eG*eG*e[5mC]*eA*eG) [compound 407888] | 34 |

same assay, conditions: oligonucleotides targeted to nucleobases 14707 to 14732 of SEQ ID NO: 1 (Table 11)

| Substance | % Inhibition (human Factor 7 mRNA levels) [%] |
| --- | --- |
| 407642 (antisense e[5mC]*eA*eG*e[5mC]*eA*dG*d[5mC]*d[5mC]*dT*dG*dA*dG*dG*d[5mC]*d[5mC]*eA*eG*e[5mC]*eA*eG) [compound 407642] | 63 |
